The values that follow come from patent publication US11026937B2, “Heteroaryl inhibitors of PAD4” (PADLOCK THERAPEUTICS, INC., priority 2016, dated 2021).

SMILES strings stand for the structures. Read-outs that look alike come from different tables or passages of the source.

The target of this assay is hPAD4 enzyme (Homo sapiens (Human), UniProt Q9UM07). Put plainly: PAD4 assay (hPAD4-RFMS, RapidFire mass spectrometry). The format is biochemical. To be noted: 100 nM hPAD4, 50 μM substrate peptide, 1 mM CaCl2, 65 mins at 37° C. The protocol: Compounds of the present invention were assayed as inhibitors of PAD4 using the assay protocol described below.
Sequence of hPAD4 enzyme (Q9UM07 whole entry): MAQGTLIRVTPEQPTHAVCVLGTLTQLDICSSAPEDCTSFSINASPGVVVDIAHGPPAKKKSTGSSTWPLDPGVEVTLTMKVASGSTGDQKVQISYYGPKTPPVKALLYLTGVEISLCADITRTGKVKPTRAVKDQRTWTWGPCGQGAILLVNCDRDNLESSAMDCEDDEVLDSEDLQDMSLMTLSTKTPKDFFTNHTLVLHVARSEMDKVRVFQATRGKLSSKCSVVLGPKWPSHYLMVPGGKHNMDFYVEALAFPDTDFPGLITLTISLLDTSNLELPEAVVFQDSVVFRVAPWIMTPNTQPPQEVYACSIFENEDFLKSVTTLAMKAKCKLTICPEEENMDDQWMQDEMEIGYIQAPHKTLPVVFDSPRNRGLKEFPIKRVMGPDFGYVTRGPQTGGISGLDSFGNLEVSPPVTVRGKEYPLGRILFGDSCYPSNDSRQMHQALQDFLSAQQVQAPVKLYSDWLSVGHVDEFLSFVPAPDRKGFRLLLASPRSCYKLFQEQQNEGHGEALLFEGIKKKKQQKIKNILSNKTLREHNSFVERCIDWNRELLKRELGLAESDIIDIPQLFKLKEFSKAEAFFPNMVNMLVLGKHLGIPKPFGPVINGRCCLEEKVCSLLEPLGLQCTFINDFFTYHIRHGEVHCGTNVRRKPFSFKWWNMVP
Compounds were solubilized in 100% DMSO to achieve 100 mM final compound concentration. Compound stock solutions were stored at RT. A series of dilutions were prepared in DMSO and mixed 8 times with 20 μL mixing volume. Final assay conditions were as follows:
Assay buffer (as aforementioned): 100 mM Tris-HCl (pH 7.6), 2 mM DTT, 1 mM CaCl2
Total incubation time: 65 mins at 37° C.
Stop solution: 40 μl 5% TCA in ACN
0.25 μL of compound solution was added to 10 μL of 200 nM PAD4 in assay buffer (100 mM Tris-HCl pH 7.6, 2 mM DTT). After 5 mins, 10 μL of 100 μM of substrate in buffer (100 mM Tris-HCl pH 7.6, 2 mM DTT, 2 mM CaCl2) was added and the reaction incubated for 60 mins at 37° C. The enzymatic reaction was quenched by addition of 40 μl of 5% TCA in ACN (1.7% TCA final concentration) stop solution.
The compound numbers correspond to the compound numbers in Tables 1 and 2. […] The term pIC50=−log(IC50). […] “NA” stands for “not assayed.”

The mark [1] stands for this setting: read-out: hPAD4-RFMS: IC50 (μM) (Average).
Where [2] appears, read: read-out: hPAD4-RFMS: pIC50 (Average) (converted).

Consider `C#CCOCCOCCOc1ccc(/C=C/C(=O)c2c(-c3ccccc3)c3ccccc3[nH]c2=O)cc1` [Compound I-109, 4-phenyl-3-[(2E)-3-(4-{2-[2-(prop-2-yn-1-yloxy)ethoxy]ethoxy}phenyl)prop-2-enoyl]-1,2-dihydroquinolin-2-one], for which the IC50 is greater than 100 µM under setting [1] and 100 to 100000 µM under setting [2].
Turning to `O=C(/C=C/c1nc2ccccc2[nH]1)c1c(-c2ccccc2)c2ccccc2[nH]c1=O` [Compound I-103], the “hPAD4-RFMS: pIC50 (Average)” value is reported as “F (pIC50 of 4-5)”. Further, the IC50 under setting [1] fell in the range of 20 to 100 µM.
As to `O=C(/C=C/c1cncnc1)c1c(-c2cccnc2)c2ccccc2[nH]c1=O` [Compound I-95], the IC50 is, setting by setting: under setting [1], greater than 100 µM; under setting [2], 100 to 100000 µM.
On to `O=C(/C=C/c1cccnc1)c1c(-c2ccccn2)c2ccccc2[nH]c1=O` [Compound I-124], for which the IC50 is greater than 100 µM under setting [1] and 100 to 100000 µM under setting [2].
Taken in the same sequence, the figures for `O=C(/C=C/c1cncnc1)c1c(-c2ccccc2)c2cnccc2[nH]c1=O` [Compound I-90, 4-phenyl-3-[(2E)-3-(pyrimidin-5-yl)prop-2-enoyl]-1,2-dihydro-1,6-naphthyridin-2-one] were greater than 100 µM and 100 to 100000 µM.
For `O=C(/C=C/c1ccccn1)c1c(-c2ccc(F)cc2)c2ccccc2[nH]c1=O` [Compound I-108] the same measures were greater than 100 µM and 100 to 100000 µM.
Taken in the same sequence, the figures for `COc1ccc(/C=C/C(=O)c2ccc[nH]c2=O)cc1` [Compound I-151] were greater than 100 µM and 100 to 100000 µM.
Turning to `COc1ccc(/C=C/C(=O)c2c(-c3ccccc3)c3ccccc3[nH]c2=O)cc1` [Compound I-139], the IC50 reads like this: under setting [1], 3 to 20 µM; under setting [2], less than 10 µM.
Taken in the same sequence, the figures for `Cn1c(/C=C/C(=O)c2c(-c3ccccc3)c3ccccc3n(C)c2=O)nc2ccccc21` [Compound I-72] were greater than 100 µM and 10 to 100 µM.
